Measured values as given in PubChem BioAssay AID449762 (Southern Research Specialized Biocontainment Screening …, 2010).
Records with an inconclusive call do not appear.

Test system: M. tuberculosis H37Rv growth inhibition, 7H9 media
Assay: M. tuberculosis growth inhibition, HTS (AID 449762);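 also: bacterial growth assessed after seven days of incubation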
Conditions: for IC90: measured here: IC90 growth inhibition

Row | Structure (SMILES) | IC50 | IC90
1 | Cc1ccc(NC(=S)N(CCCN2CCCC2)Cc2cccn2Cc2ccc(Cl)cc2)cc1C | 86 µM | > 100 µM
2 | COc1ccc(N2CN=C3SCC(=O)N3C2)cc1 |  | > 100 µM
3 | CCN1CCN(CCCNC(=O)c2ccc(/C=C3/Oc4ccccc4N(Cc4cccc(C)c4)C3=O)cc2)CC1 | 29.6 µM | 42.2 µM
4 | O=C(CN1CCN(c2nc(-c3ccc(F)cc3)cs2)CC1)NCc1ccc2c(c1)OCO2 | 42.6 µM | 55.8 µM
5 | CC(C)CNC(=S)NC(=O)c1csc([N+](=O)[O-])c1 | 6.74 µM | 15.1 µM
6 | O=C(/C=C/c1ccc([N+](=O)[O-])cc1)NC1CC2CCC1C2 (centres undefined) | 44.6 µM | 84.1 µM
7 | CC1CCN(c2nc(Cl)nc(Nc3ccc([N+](=O)[O-])cc3)n2)CC1 | 79.8 µM | > 100 µM
8 | COc1cccc(N2CCN(c3ncnc4c3[nH]c3ccccc34)CC2C)c1 (centres undefined) | 24.2 µM | 35.5 µM
9 | Cn1nc(-c2ccccn2)nc2c(=O)n(C)c(=O)nc1-2 | 9.04 µM | 14.5 µM
10 | COC(=O)c1ccc(CSc2nc(C(F)(F)F)c3c(c2C#N)CCC3)o1 | 47.1 µM | > 100 µM
11 | CC(C)Cc1ccc(C(C)C(N)=NCCc2ccccc2)cc1 (centres undefined) | 22.6 µM | 25.8 µM
12 | c1ccc(CN2CCN(CCCNc3ccc4nnc(-c5ccccc5)n4n3)CC2)cc1 | 19.4 µM | 24.7 µM
13 | CC1(c2ccc(OC(F)F)cc2)NC(=O)N(CC(=O)c2ccc3c(c2)OCO3)C1=O (centres undefined) | 23.6 µM | 32.2 µM
14 | c1ccc(-c2nccc(-c3ccc(-n4cnc5ccccc54)cc3)n2)nc1 | 11 µM | 16.5 µM
15 | CCOC(=O)CNC(=O)CNC(=O)c1nn(-c2ccc(OC)c(Cl)c2)c(=O)c2ccccc12 | 22.2 µM | > 100 µM
16 | Cn1c(-c2c(N)n(CCc3ccccc3)c3nc4ccccc4nc23)nc2ccccc21 | 7.64 µM | > 100 µM
17 | CCOc1ccc(NC(=O)CSc2cn[nH]n2)cc1 | 57.1 µM | > 100 µM
18 | Cc1cc2[nH]c3c(c[n+](C)c4ccccc34)c2cc1C | 8.57 µM | 13.1 µM

Row | Structure (SMILES) | IC50 | IC90
19 | CN(C)CCOc1nc(-c2ccccc2)nc2c1oc1ccccc12 | 11.8 µM | 16.3 µM
20 | Cc1cc(-c2nnc3n2CCCCC3)c(C)n1-c1ccccc1 | 45.7 µM | 51.4 µM
21 | COc1cc2ccccc2cc1C(=O)Nc1ccc(Cc2ccncc2)cc1 | 2.26 µM | 16.8 µM
22 | COc1ccc(NS(=O)(=O)c2ccc3nc(COc4cccc5ccccc45)[nH]c3c2)cc1 | 63.2 µM | > 100 µM
23 | Cc1ccc(NC(=O)Cc2ccc(-c3ccccc3)cc2)nc1 | 25 µM | 61.3 µM
24 | CCOC(=O)COc1ccc(S(=O)(=O)NCCC2=CCCCC2)cc1 | 13.6 µM | 27.6 µM
25 | Cc1cccc(NS(=O)(=O)c2ccc(C(=O)N3CCN(c4ccccc4O)CC3)cc2)c1C | 75.3 µM | > 100 µM
26 | Cc1ccc(N/N=C/C=C/c2ccco2)cc1 | 61.2 µM | 98.2 µM
27 | CCc1ccc(-c2csc(-c3c[nH]c4ccccc34)n2)cc1 | 10.7 µM | 21.7 µM
28 | O=C(CN1CCCCC1)Nc1nnc(-c2ccc([N+](=O)[O-])cc2)s1 | 16.2 µM | 62.4 µM
29 | O=C(NNC(=O)C12CC3CC(CC(C3)C1)C2)c1ccccn1 | 5.36 µM | 23.5 µM
30 | C/C(=N\Nc1ccc([N+](=O)[O-])cc1)c1cccc(N)c1 | 62.9 µM | 88.3 µM
31 | CNc1ccc2oc(C[C@H]3O[C@@]4(CC[C@H]3C)O[C@H]([C@H](C)C(=O)c3ccc[nH]3)[C@H](C)C[C@H]4C)nc2c1C(=O)O | 1.1 µM | 1.97 µM
32 | CCc1ccc2oc(-c3cc(N=Cc4cccc(OC)c4O)ccc3O)nc2c1 | 35.8 µM | 69.3 µM
33 | CC(C)COCc1ccc(O)c2ncccc12 | 1.64 µM | 2.35 µM
34 | Cn1c2ccccc2c2cc(C(=O)NNC(=O)CCl)sc21 | 1.72 µM | 3.91 µM
35 | Cc1nc(NCCc2ccccc2)c2oc3ccccc3c2n1 | 6.49 µM | 14.2 µM
